Read-outs that look alike come from different tables or passages of the source.
Experiments:
Phakopsora pachyrhizi = assay: Asian soybean rust, whole-plant fungicidal activity (PHAKPA); format: in vivo; conditions: read-out: % Disease Control Rating PHAKPA
Description: Example C: Evaluation of Fungicidal Activity: Asian Soybean Rust (Phakopsora pachyrhizi; Bayer Code […]) Technical grades of materials were dissolved in acetone, which were then mixed with nine volumes of H2O containing 0.011% Tween-20. The fungicide solutions were applied onto soybean seedlings using an automated booth sprayer to run-off. All sprayed plants were allowed to air dry prior to further handling. Soybean plants (variety 'Williams 82') were grown in soil-less potting mix, with one plant per pot. Ten-day-old seedlings were used for testing. Plants were inoculated as described in Example A. Plants were incubated for 24 h in a dark dew room with 100% relative humidity then transferred to a growth room for disease to develop. Fungicide formulation and application were made as described in Example A. When disease symptoms were fully expressed, disease severity was assessed on the sprayed leaves on a scale of 0 to 100 percent. Percent disease control was calculated using the ratio of disease severity on treated plants relative to untreated plants.

Puccinia triticina = assay: Wheat brown rust, whole-plant fungicidal activity (PUCCRT); format: in vivo, Puccinia triticina on wheat plants (variety 'Yuma'); conditions: 24 h, 1DP (1 day protectant), read-out: % Disease Control Rating PUCCRT
Description: Technical grades of materials were dissolved in acetone, which were then mixed with nine volumes of water (H2O) containing 110 ppm Triton X-100. The fungicide solutions were applied onto wheat seedlings using an automated booth sprayer to run-off. All sprayed plants were allowed to air dry prior to further handling. All fungicides were evaluated using the aforementioned method for their activity vs. all target diseases, unless stated otherwise.
Example B: Evaluation of Fungicidal Activity: Wheat Brown Rust (Puccinia triticina; Synonym: Puccinia recondita f sp. tritici; Bayer Code PUCCRT)
Wheat plants (variety ‘Yuma’) were grown from seed in a greenhouse in soil-less potting mix until the first leaf was fully emerged, with 7-10 seedlings per pot. These plants were inoculated with an aqueous spore suspension of Puccinia triticina after fungicide treatments. After inoculation, the plants were kept in a dark dew room with 100% relative humidity overnight to permit spores to germinate and infect the leaf. The plants were then transferred to a greenhouse for disease to develop. Fungicide formulation, application and disease assessment followed the procedures as described in Example A.

Rhynchosporium commune = assay: Leaf blotch of barley, whole-plant fungicidal activity (RHYNSE); format: in vivo; conditions: 24 h, 1DP (1 day protectant), read-out: % Disease Control Rating RHYNSE
Description: Technical grades of materials were dissolved in acetone, which were then mixed with nine volumes of water (H2O) containing 110 ppm Triton X-100. The fungicide solutions were applied onto wheat seedlings using an automated booth sprayer to run-off. All sprayed plants were allowed to air dry prior to further handling. All fungicides were evaluated using the aforementioned method for their activity vs. all target diseases, unless stated otherwise. Example D: Evaluation of Fungicidal Activity: Leaf Blotch of Barley (Rhynchosporium commune; Bayer Code […]) Barley plants (variety 'Harrington') were grown from seed in a greenhouse in soil-less potting mix until the first leaf was fully emerged, with 7-10 seedlings per pot. These plants were inoculated with an aqueous spore suspension of Rhynchosporium commune after fungicide treatments. After inoculation, the plants were kept in a dark dew room with 100% relative humidity for two days to permit spores to germinate and infect the leaf. The plants were then transferred to a greenhouse for disease to develop. Fungicide formulation and application were made as described in Example A. Disease assessment was conducted as described in Example A.

Zymoseptoria tritici = assay: Septoria leaf blotch of wheat, whole-plant fungicidal activity (SEPTTR); format: in vivo, Zymoseptoria tritici on wheat plants (variety 'Yuma'); conditions: read-out: % Disease Control Rating SEPTTR
Description: Example A: Evaluation of Fungicidal Activity: Septoria Leaf Blotch of Wheat (Zymoseptoria tritici; Bayer Code […]) Technical grades of materials were dissolved in acetone, which were then mixed with nine volumes of water (H2O) containing 110 ppm Triton X-100. The fungicide solutions were applied onto wheat seedlings using an automated booth sprayer to run-off. All sprayed plants were allowed to air dry prior to further handling. All fungicides were evaluated using the aforementioned method for their activity vs. all target diseases, unless stated otherwise. Wheat plants (variety 'Yuma') were grown from seed in a greenhouse in soil-less potting mix until the first leaf was fully emerged, with 7-10 seedlings per pot. These plants were inoculated with an aqueous spore suspension of Zymoseptoria tritici either 3 days prior to fungicide treatment (3 day curative; 3DC) or 1 day after fungicide treatment (1 day protectant; 1DP). After inoculation the plants were kept in 100% relative humidity for three days to permit spores to germinate and infect the leaf. The plants were then transferred to a greenhouse for disease to develop. When disease symptoms were fully expressed on the 1st leaves of untreated plants, infection levels were assessed on a scale of 0 to 100 percent disease severity. Percent disease control was calculated using the ratio of disease severity on treated plants relative to untreated plants.

Row | SMILES | pest or weed control at 200 ppm (Phakopsora pachyrhizi; 24 h, 1DP (1 day protectant)) [%] | pest or weed control at 200 ppm (Phakopsora pachyrhizi; 72 h, 3DC (3 day curative)) [%] | pest or weed control at 200 ppm (Puccinia triticina) [%] | pest or weed control at 200 ppm (Rhynchosporium commune) [%] | pest or weed control at 200 ppm (Zymoseptoria tritici; 24 h, 1DP (1 day protectant)) [%] | pest or weed control at 200 ppm (Zymoseptoria tritici; 72 h, 3DC (3 day curative)) [%]
1 | CCN(C)/C=N/c1cc(C)c(C(=O)Cc2ccc(C(F)(F)F)cc2)cc1C [Compound 63] | > 85 | > 85 | > 85 | > 85 | > 85 | 20 to 50
2 | CCN(C)/C=N/c1cc(C)c(C(=O)CCC(C)C)cc1C [Compound 22] | > 85 | > 85 | > 85 | > 85 | < 20 | < 20
3 | CCN(C)/C=N/c1cc(C)c(C(=O)Cc2ccc(Cl)cc2)cc1C [Compound 69] | > 85 | > 85 | > 85 | 50 to 85 | 50 to 85 | 50 to 85
4 | Cc1cc(C(=O)CC2CCCCC2)c(C)cc1/N=C(\S)N(C)C1CCCCC1 [Compound 48] | < 20 | < 20 | < 20 | < 20 | < 20 | < 20
5 | CCN(C)/C=N/c1cc(C)c(C(=O)Cc2ccc(C(C)C)cc2)cc1C [Compound 66] | > 85 | > 85 | > 85 | > 85 | > 85 | < 20
6 | CCN(/C=N/c1cc(C)c(C(=O)Cc2c(F)cc(F)cc2F)cc1C)CC [Compound 78] | > 85 | > 85 | > 85 | < 20 | < 20 | < 20
7 | CCc1ccc(CC(=O)c2cc(C)c(/N=C/N(C)CC)cc2C)cc1 [Compound 6] | > 85 | > 85 | > 85 | > 85 | > 85 | 20 to 50
8 | Cc1cc(C(=O)CC2CCCCC2)c(C)cc1/N=C(\S)N(C)C(C)C [Compound 47] | > 85 | > 85 | > 85 | 20 to 50 | > 85 | < 20
9 | CCN(C)/C(S)=N/c1cc(C)c(C(=O)CC2CCCCC2)cc1C [Compound 61] | > 85 | > 85 | > 85 | > 85 | > 85 | < 20
10 | CCN(C)/C=N/c1cc(C)c(C(=O)Cc2ccc(SC(F)(F)F)cc2)cc1C [Compound 65] | > 85 | > 85 | > 85 | > 85 | > 85 | 20 to 50
11 | CCN(C)/C(S)=N/c1cc(C)c(C(=O)CC2CCCC2)cc1C [Compound 94] | > 85 | > 85 | > 85 | > 85 | > 85 | < 20
12 | Cc1cc(C(=O)Cc2c(F)cc(F)cc2F)c(C)cc1/N=C/N(C)C(C)C [Compound 79] | > 85 | – | > 85 | 50 to 85 | < 20 | < 20
13 | CCN(C)/C=N/c1cc(C)c(C(=O)C2CCCC2)cc1C [Compound 17] | > 85 | > 85 | > 85 | > 85 | 50 to 85 | < 20
14 | CCN(C)/C=N/c1cc(C)c(C(=O)Cc2cccc(C(=O)OC)c2)cc1C [Compound 24] | < 20 | < 20 | > 85 | < 20 | < 20 | < 20
15 | CCN(C)/C=N/c1cc(C)c(C(=O)CC2CCC2)cc1C [Compound 27] | > 85 | > 85 | > 85 | > 85 | > 85 | 50 to 85
16 | Cc1cc(C(=O)CC2CCCC2)c(C)cc1/N=C/N1CCCCC1 [Compound 80] | > 85 | > 85 | > 85 | > 85 | 50 to 85 | < 20
17 | Cc1cc(C(=O)CC2CCCCC2)c(C)cc1/N=C(\S)N1CCCC1 [Compound 49] | > 85 | 50 to 85 | > 85 | < 20 | 20 to 50 | < 20
18 | CCN(C)/C=N/c1cc(C)c(C(=O)Cc2ccc(C)cc2C)cc1C [Compound 62] | > 85 | 20 to 50 | > 85 | > 85 | > 85 | 50 to 85
19 | CCN(C)/C=N/c1cc(C)c(C(=O)CCC(F)(F)F)cc1C [Compound 19] | > 85 | > 85 | > 85 | 20 to 50 | < 20 | 20 to 50
20 | Cc1cc(C(=O)CC2CCCCC2)c(C)cc1/N=C(\S)N(C)CC(F)(F)F [Compound 46] | 20 to 50 | < 20 | < 20 | < 20 | < 20 | < 20
21 | CCN(C)/C=N/c1cc(C)c(C(=O)Cc2ccccc2OC(F)F)cc1C [Compound 83] | > 85 | > 85 | > 85 | > 85 | < 20 | < 20
22 | CCN(C)/C(S)=N/c1cc(C)c(C(=O)Cc2c(F)cc(F)cc2F)cc1C [Compound 93] | > 85 | > 85 | > 85 | > 85 | 50 to 85 | < 20
23 | CCN(C)/C=N/c1cc(C)c(C(=O)Cc2ccc(OC(F)F)cc2)cc1C [Compound 85] | > 85 | > 85 | > 85 | > 85 | > 85 | 20 to 50

— patent US20240000075A1, “FUNGICIDAL ARYL AMIDINES” (CORTEVA AGRISCIENCE LLC, priority 2020, published 2024)
